Tests used:
Male Balb/c mice = assay: Intraperitoneal Glucose Tolerance Test (IPGTT); assay type: in vivo, mouse
Procedure: To examine the ability of exemplified the compound to activate GPR40 in-vivo resulting in anti-diabetic efficacy, i.e. reduction in plasma glucose levels, a 4-day intraperitoneal glucose tolerance test (ipGTT) study is completed, and the data is shown for the compound tested below.
Male Balb/c (Albino mice) mice (8-9 weeks of age) are single housed, and fed with normal rodent chow diet and water ad libitum. Animals are weighed; randomized by body weight; and their daily body weights are recorded Animals are dosed once per day orally for three days using a formulation carrying methylcellulose and tween-80. On the night before Day 4, animals are fasted overnight. On the morning of Day 4, animals are dosed orally with compound or vehicle alone 60 minutes prior to the glucose tolerance test (glucose 2 g/kg, i.p.). Blood glucose levels are determined from tail bleeds taken at 0, 3, 7, 15, 30, and 60 min after glucose challenge. The blood glucose excursion profile from t=0 to t=60 min is used to integrate an area under the curve (AUC) for each treatment. Percent lowering in glucose is calculated from the AUC data of the compound with respect to the AUC of vehicle group. The test compound is orally administered at 0.3, 1.0, 3.0, 10, or 30 mg/kg, and a positive control (3-[4-(2-methyl-benzyloxy)-phenyl]-hex-4-ynoic acid, see WO2005086661.) is administered at 10 mg/kg. […] Glucose levels are lowered at the 15, 30, and 60 minute time points for the positive control. The ED50 for this compound based on AUCs for glucose lowering is 1.0 mg/kg.

PPARγ = target: T1, PPARγ (Homo sapiens, UniProt P37231); assay: PPARγ binding assay (SPA); set-up: made in house; host or cells: HEK293 (cell lysates)
T1 sequence (P37231 1-505): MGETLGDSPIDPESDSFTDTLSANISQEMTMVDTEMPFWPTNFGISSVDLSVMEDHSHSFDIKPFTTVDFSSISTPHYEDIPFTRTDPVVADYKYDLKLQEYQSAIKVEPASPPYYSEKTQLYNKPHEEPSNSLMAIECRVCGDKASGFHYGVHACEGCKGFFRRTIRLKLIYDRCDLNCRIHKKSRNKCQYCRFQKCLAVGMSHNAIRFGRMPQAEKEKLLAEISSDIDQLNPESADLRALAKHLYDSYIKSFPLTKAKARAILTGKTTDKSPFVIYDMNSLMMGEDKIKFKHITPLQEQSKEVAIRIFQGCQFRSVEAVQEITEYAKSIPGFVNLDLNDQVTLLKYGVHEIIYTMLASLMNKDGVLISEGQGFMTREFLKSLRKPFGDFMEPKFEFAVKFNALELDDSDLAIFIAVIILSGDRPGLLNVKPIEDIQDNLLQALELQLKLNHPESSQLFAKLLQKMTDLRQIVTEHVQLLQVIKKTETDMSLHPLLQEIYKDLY
T1 sequence (P19793 1-462 partner): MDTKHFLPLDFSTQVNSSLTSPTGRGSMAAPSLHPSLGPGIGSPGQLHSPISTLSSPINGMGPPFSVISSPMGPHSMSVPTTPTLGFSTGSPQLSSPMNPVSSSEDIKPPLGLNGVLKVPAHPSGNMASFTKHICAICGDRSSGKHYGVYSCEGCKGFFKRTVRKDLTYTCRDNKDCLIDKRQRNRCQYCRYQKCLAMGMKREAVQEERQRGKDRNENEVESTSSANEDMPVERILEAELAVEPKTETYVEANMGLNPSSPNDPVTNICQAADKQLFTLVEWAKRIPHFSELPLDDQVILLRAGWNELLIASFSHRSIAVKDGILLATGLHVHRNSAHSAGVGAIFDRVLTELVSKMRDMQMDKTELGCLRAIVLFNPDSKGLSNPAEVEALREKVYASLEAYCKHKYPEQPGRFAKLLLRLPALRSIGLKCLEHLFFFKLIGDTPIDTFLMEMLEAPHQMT
Procedure: Because GPR40 is known to be activated by ligands to PPARγ, the exemplified compound is examined in PPARα, PPARδ, and PPARγ binding and functional assays to determine the selectivity of the compound of Example 1 for GPR40.
Binding affinities of the compound for the PPAR α, δ, and γ receptors are assessed using Scintillation Proximity Assay (SPA) technology. Biotinylated oligonucleotide Direct Repeat 2 (DR2) is used for binding the receptors to Yttrium silicate streptavidin-coated SPA beads. PPAR α, δ, γ and retinoid X receptor (RXR) α are over expressed in HEK293 cells, and cell lysates containing the specific receptors are used in the individual assays. The DR2 is attached to the SPA beads over a 30 minute period in a binding buffer containing 10 mM HEPES pH 7.8, 80 mM KCl, 0.5 mM MgCl2, 1 mM DTT, 0.5% 3[(3-cholamidopropyl)dimethylammonio]-propanesulfonic acid (CHAPS), and 4.4% bovine serum. […] Non-specific binding is determined in the presence of 10,000 nM of the unlabeled PPAR α/δ dual agonist reference compound for the alpha and delta receptor assays and the PPARγ agonist reference compound for the gamma receptor assay. The binding reaction (100 μl per well in a 96 well [Costar 3632] plate) is incubated for 10 h and counted disintegration per minutes (dpm) on a Wallac Microbeta. Receptor binding affinity (IC50) for the compound is determined by fitting an 11 point concentration-response curve with a 4-parameter logistic equation. Ki is determined from the IC50 using the Cheng-Prussoff equation and Kd determined by saturation binding. […]

Structure (SMILES): CC#C[C@@H](CC(=O)O)c1ccc(OCc2ccc(CN3CCCc4cccc(OC)c43)s2)cc1 [Example 1, (3S)-3-[4-[[5-[(8-Methoxy-3,4-dihydro-2H-quinolin-1-yl)methyl]-2-thienyl]methoxy]phenyl]hex-4-ynoic acid]
- Glucose levels compared to vehicle control, 30 and 60 minute time points (Male Balb/c mice; 1.0, 3.0, 10 and 30 mg/kg oral doses): significantly lowered
- Glucose levels compared to vehicle control, 15 minute time point (Male Balb/c mice; 3, 10 and 30 mg/kg oral doses): significantly lowered
- ED50 (Male Balb/c mice; Mus musculus, oral, once per day, 4 days, glucose 2 g/kg i.p., AUC t=0 to 60 min, read-out: ED50 based on AUCs for glucose lowering): 1 mg/kg
- binding (PPARγ; concentrations up to 10 μM): no binding is detected
- IC50 (PPARγ; tested up to 30 μM, read-out: relative IC50): > 10 µM
- PPAR binding values (PPARγ; with 10 μM concentrations of test compound): greater than 1000 nM
